Here are results for nine compounds from EP0328121A1, “Substituted hydrazine mitomycin analogs” (priority 1988, dated 1989).

Where “and” joins values, the source holds several entries; their conditions need not be identical. Equal entries are not always repeated. Where two headings read alike, the source gives them in different places.

This assay deals with P-388 murine leukemia. The assay can be described thus: Activity against P-388 murine leukemia (P-388 screen, survival of tumor-implanted mice). Format: in vivo, CDF₁ female mice. As to conditions: for minimal effective dose: Mus musculus, P388, ip; for activity against P-388 leukemia (in words): in vivo P-388 leukemia, compared to concurrently run mitomycin C controls. The protocol:
The Table contains the results of laboratory tests with CDF₁ female mice implanted intraperitoneally with a tumor inoculum of 10⁶ ascites cells of P-388 murine leukemia and treated with various doses of either a test compound of this invention, or with mitomycin C. The compounds were administered by intraperitoneal injection. Groups of six mice were used for each dosage amount and they were treated with a single dose of the compound on the day of inoculation. A group of ten saline treated control mice was included in each series of experiments. The mitomycin C treated groups were included as a positive control. A 30-day protocol was employed with the mean survival time in days being determined for each group of mice and the number of survivors at the end of the 30-day period being noted.
The results were determined in terms of % T/C which is the ration of the mean survival time of the treated group to the mean survival time of the saline treated control group times 100. The saline treated control animals usually died within nine days. The "maximum effect" in the following Table is expressed as % T/C and the dose giving that effect is given in parentheses. The values in brackets are the values obtained with mitomycin C as the positive control in the same experiment. Thus, a measure of the relative activity of the present substances to mitomycin C can be estimated. A minimum effect in terms of % T/C was considered to be 125. The minimum effective dose (MED) reported in the following Table is that dose given a % T/C of approximately 125 or greater.

The mark [1] stands for this setting: read-out: MED (minimum effective dose, %T/C≧125), P-388 leukemia ip, single ip dose on the day of inoculation, mitomycin C value in brackets from the same experiment.

For `CO[C@@]12[C@H](COC(N)=O)C3=C(C(O)=C(C)C(=NNC(C)=O)C3=O)N1C[C@@H]1N[C@@H]12` [I, Acetic acid, [1aS-(1aα, 8β, 8aα, 8bα)]-[8-[[(aminocarbonyl)oxy]methyl]-1,1a,2,8,8a,8b-hexahydro-4-hydroxy-8a-methoxy-5-methyl-7-oxoazirino [2′,3′;3,4]pyrrolo[1,2-a]indol-6(7H)-ylidene]hydrazide], the “activity against P-388 leukemia (in words)” value is given as “pronounced activity”. Besides, the minimal effective dose under setting [1] is 1.6 mg/kg.

Consider `CO[C@@]12[C@H](COC(N)=O)C3=C(C(O)=C(C)C(=NNC(=O)c4ccccc4)C3=O)N1C[C@@H]1N[C@@H]12` [II, Benzoic acid, [1aS-(1aα, 8β, 8aα, 8bα)]-[8-[[(aminocarbonyl)-oxy]methyl]-1,1a,2,8,8a,8b-hexahydro-4-hydroxy-8a-methoxy-5-methyl-7-oxoazirino[2′,3′,4]pyrrolo[1,2-a]indol-6(7H)-ylidene]hydrazide], for which the “activity against P-388 leukemia (in words)” value is recorded as “moderately active”. In addition, under setting [1], the minimal effective dose was found to be 0.8 mg/kg.

Regarding `CO[C@@]12[C@H](COC(N)=O)C3=C(C(O)=C(C)C(=NNC(=O)c4cccnc4)C3=O)N1C[C@@H]1N[C@@H]12` [III, 3-Pyridinecarboxylic acid, [1aS-(1aα, 8β, 8aα, 8bα)]-[8-[[(aminocarbonyl)-oxy]methyl]-1,1a,2,8,8a,8b-hexahydro-4-hydroxy-8a-methoxy-5-methyl-7-oxoazirino[2′,3′;3,4,]pyrrolo[1,2-a]indol-6(7H)-ylidene]hydrazide], the “activity against P-388 leukemia (in words)” value is given as “moderately active”. Further, the minimal effective dose under setting [1] is 12.8 mg/kg.

In the case of `CO[C@@]12[C@H](COC(N)=O)C3=C(C(O)=C(C)C(=NNC(=O)c4cccs4)C3=O)N1C[C@@H]1N[C@@H]12` [IV], the “activity against P-388 leukemia (in words)” value is on record as “moderately active”. The minimal effective dose under setting [1] was determined as 0.8 mg/kg.

Take `CCOC(=O)NN=C1C(=O)C2=C(C(O)=C1C)N1C[C@@H]3N[C@@H]3[C@]1(OC)[C@@H]2COC(N)=O` [V, Ethyl [1aS-(1aα, 8β, 8aα, 8bα)]-[8-[[(aminocarbonyl)oxy]methyl]-1,1a,2,8,8a,8b-hexahydro-4-hydroxy-8a-methoxy-5-methyl-7-oxoazirino[2′,3′,3,4]pyrrolo[1,2-a]indol-6(7H)-ylidene]hydrazinecarboxylate]: the “activity against P-388 leukemia (in words)” value is recorded as “highest efficacy”. Moreover, the minimal effective dose under setting [1] came to 0.8 mg/kg.

`CO[C@@]12[C@H](COC(N)=O)C3=C(C(O)=C(C)C(=NNC(=O)OCc4ccccc4)C3=O)N1C[C@@H]1N[C@@H]12` [VII, Phenylmethyl [1aS-(1aα, 8β, 8aα, 8bα)]-[8-[[(aminocarbonyl)-oxy]methyl]-1,1a, 2,8,8a, 8b-hexahydro-4-hydroxy-8a-methoxy-5-methyl-7-oxoazirino[2′, 3′; 3, 4]pyrrolo[1,2-a]indol-6(7H)-ylidene] hydrazinecarboxylate]: the “activity against P-388 leukemia (in words)” value is on record as “highest efficacy”. The minimal effective dose under setting [1] is 1.6 mg/kg.

Consider `CO[C@@]12[C@H](COC(N)=O)C3=C(C(O)=C(C)C(=NNC(=O)OCC4c5ccccc5-c5ccccc54)C3=O)N1C[C@@H]1N[C@@H]12` [VIII, 9′-Fluorenylmethyl[1aS-(1aα, 8β, 8aα, 8bα)]-[8-[[(aminocarbonyl)oxy]-methyl]-1,1a, 2,8,8a, 8b-hexahydro-4-hydroxy-8a-methoxy-5-methyl-7-oxoazirino[2′, 3′;3,4,]pyrrolo[1,2-a]indol-6(7H)-ylidene]hydrazine carboxylate], for which the “activity against P-388 leukemia (in words)” value was “highest efficacy”. Moreover, the minimal effective dose under setting [1] was found to be 0.8 mg/kg.

Regarding `CO[C@@]12[C@H](COC(N)=O)C3=C(C(O)=C(C)C(=NNC(=O)OC(C)(C)C)C3=O)N1C[C@@H]1N[C@@H]12` [VI], the minimal effective dose under setting [1] worked out at 0.8 mg/kg.

Consider `CO[C@@]12[C@H](COC(N)=O)C3=C(C(=O)C(C)=C(N)C3=O)N1C[C@@H]1N[C@@H]12` [mitomycin C, 7-amino-9α-methoxymitosane, reference compound], for which, where the note is “P-388 leukemia ip, single ip dose on the day of inoculation, mitomycin C value in brackets from the same experiment, read-out: MED (minimum effective dose, %T/C≧125)”, the minimal effective dose amounted to 1.6 mg/kg. Besides, the “MED (minimum effective dose, %T/C≧125)” value (P-388 leukemia ip, single ip dose on the day of inoculation, mitomycin C value in brackets from the same experiment) was 1.6[1.6] mg/kg per dose and 0.8[0.8] mg/kg per dose.
